This is an account of results in patent US20250282749A1 (Tango Therapeutics, Inc., priority 2022, published 2025).

Format in all cases: cell-based
The test system of assay [1] is PRMT5 (SDMA) in HAP1 MTAP-intact cell line. Description: SDMA in-cell western assay, HAP1 MTAP-intact cell line. The settings on record: Homo sapiens, HAP1 MTAP-intact cell line (endogenous MTAP), read-out: Hap 1 MTAP intact IC50. From the text: (§1) HAP1 MTAP-intact is a cell line in which endogenous levels of MTAP are expressed, and HAP1 MTAP-deleted is an MTAP-null cell line.

Assay [2] concerns PRMT5 (SDMA) in HAP1 MTAP-deleted cell line. The experiment in a line: SDMA in-cell western assay, HAP1 MTAP-deleted cell line. The settings on record: for IC50 / IC90: Homo sapiens, SDMA in-cell western, HAP1 MTAP-deleted (MTAP-null) cell line; for Hap1 MTAP intact/deleted ratio: ratio of SDMA in-cell western IC50 in HAP1 MTAP-intact to IC50 in HAP1 MTAP-deleted cell line.
Description: as §1

Assay [3] deals with HAP1 MTAP-deleted cell line. The experiment in a line: viability assay for the MTAP-deleted cell line. The settings on record: Homo sapiens.

What is called IC50 is the concentration that gives 50% inhibition. For orientation: IC90 means the concentration needed for an effect of 90%. Read a low IC90 as an effect from little substance. As for `C[C@@H]1CN(C(=O)C(=O)Nc2cnc(N)c(C3CC3)c2)[C@@H](c2ccc(F)cc2)CN1C(=O)C(C)(C)C` [Compound 152, N-(6-amino-5-cyclopropylpyridin-3-yl)-2-((2S,5R)-2-(4-fluorophenyl)-5-methyl-4-pivaloylpiperazin-1-yl)-2-oxoacetamide], the IC50 was 5 to 50 nM in assay [1], under 5 nM in assay [2] and under 100 nM in assay [3]. In assay [2], this compound yielded an IC90 of 75 to 125 nM. In assay [2], the “Hap1 MTAP intact/deleted ratio” value was “C (an IC50 ratio of less than 15 fold)”.

As for `Cc1cc(NC(=O)C(=O)N2C[C@@H](C)N(C(=O)C3(C(F)(F)F)CC3)C[C@@H]2c2cccc(C(F)(F)F)c2)cnc1N` [Compound 137, N-(6-amino-5-methylpyridin-3-yl)-2-((2S,5R)-5-methyl-4-(1-(trifluoromethyl)cyclopropanecarbonyl)-2-(3-(trifluoromethyl)phenyl)piperazin-1-yl)-2-oxoacetamide], the IC50 in assay [1] is over 50 nM. For the same compound, in assay [2], the IC50 was 5 to 50 nM, the IC90 was over 125 nM and the “Hap1 MTAP intact/deleted ratio” value is on record as “B (an IC50 ratio greater than or equal to 15 fold but lower than 30 fold)”. This compound gave an IC50 in assay [3] of under 100 nM.

On to `Cc1cc(NC(=O)C(=O)N2C[C@@H](C)N(C(=O)C3(C(F)(F)F)CC3)C[C@@H]2c2ccsc2)cnc1N` [Compound 138, N-(6-amino-5-methyl-3-pyridyl)-2-[(2S,5R)-5-methyl-2-(3-thienyl)-4-[1-(trifluoromethyl)cyclopropanecarbonyl]piperazin-1-yl]-2-oxo-acetamide], for which the IC50 in assay [1] was over 50 nM; in assay [2] it was 5 to 50 nM; in assay [3], under 100 nM. The IC90 in assay [2] was over 125 nM. The “Hap1 MTAP intact/deleted ratio” value in assay [2] is “A (an IC50 ratio greater than or equal to 30 fold)”.

In the case of `CCN1C[C@H](c2ccccc2)N(C(=O)C(=O)Nc2cnc(N)c3cn[nH]c23)C[C@H]1C` (racemic) [Compound 162, N-(4-Amino-1H-pyrazolo[4,3-c]pyridin-7-yl)-2-oxo-2-[rac-(2S,5R)-4-ethyl-5-methyl-2-phenyl-piperazin-1-yl]acetamide], the IC50 was over 50 nM in assay [1], under 5 nM in assay [2] and under 100 nM in assay [3]. In addition, in assay [2], the “Hap1 MTAP intact/deleted ratio” value is “A (an IC50 ratio greater than or equal to 30 fold)”.

With `CC(C)C(=O)N1C[C@H](c2ccc(F)c(F)c2)N(C(=O)C(=O)Nc2cnc(N)c(C3CC3)c2)C[C@H]1C` [Compound 75, N-(6-amino-5-cyclopropylpyridin-3-yl)-2-((5R)-2-(3,4-difluorophenyl)-4-isobutyryl-5-methylpiperazin-1-yl)-2-oxoacetamide], the IC50 is over 50 nM in assay [1], 5 to 50 nM in assay [2] and under 100 nM in assay [3]. This compound also registered a 90% effect concentration (IC90) in assay [2] of over 125 nM. Also, the “Hap1 MTAP intact/deleted ratio” value in assay [2] is reported as “C (an IC50 ratio of less than 15 fold)”.

For `C[C@@H]1CN(C(=O)C(=O)Nc2cncc3cn[nH]c23)[C@@H](c2ccc(F)cc2)CN1C(=O)OC(C)(C)C` [Compound 129, (2R,5S)-tert-butyl 4-(2-((1H-pyrazolo[4,3-c]pyridin-7-yl)amino)-2-oxoacetyl)-5-(4-fluorophenyl)-2-methylpiperazine-1-carboxylate], the IC50 in assay [1] is over 50 nM. Also, in assay [2], the IC50 lay in the range of 5 to 50 nM, the IC90 is over 125 nM and the “Hap1 MTAP intact/deleted ratio” value is “A (an IC50 ratio greater than or equal to 30 fold)”. This compound also had an IC50 in assay [3] of 100 to 1000 nM.

With `CCc1cc(NC(=O)C(=O)N2C[C@H](C)N(C(=O)CC3CC3)C[C@H]2c2ccc(F)cc2)cnc1N` [Compound 73, N-(6-amino-5-ethyl-3-pyridyl)-2-[(2R,5S)-4-(2-cyclopropylacetyl)-2-(4-fluorophenyl)-5-methyl-piperazin-1-yl]-2-oxo-acetamide], the IC50 in assay [1] is over 50 nM. In addition, in assay [2], the IC50 lay in the range of 5 to 50 nM, the concentration for an effect of 90% (IC90) lay in the range of 75 to 125 nM and the “Hap1 MTAP intact/deleted ratio” value is recorded as “B (an IC50 ratio greater than or equal to 15 fold but lower than 30 fold)”. The same compound showed an IC50 in assay [3] of under 100 nM.

Take `Cc1cc(NC(=O)C(=O)N2C[C@@H](C)N(C(=O)CC3(C)CC3)C[C@@H]2c2ccccc2)cnc1N` [Compound 49]: the results for the IC50 in assay [1], in assay [2] and in assay [3] were over 50 nM, 5 to 50 nM and 100 to 1000 nM, respectively. In addition, in assay [2], the IC90 lay within 75 to 125 nM. Also, in assay [2], the “Hap1 MTAP intact/deleted ratio” value is reported as “C (an IC50 ratio of less than 15 fold)”.

`Cc1cc(NC(=O)C(=O)N2C[C@@H](C)N(C(=O)C3(C(F)(F)F)CC3)C[C@@H]2c2ccc(F)c(Cl)c2)cnc1N` [Compound 29, N-(6-amino-5-methylpyridin-3-yl)-2-((2S,5R)-2-(3-chloro-4-fluorophenyl)-5-methyl-4-(1-(trifluoromethyl)cyclopropanecarbonyl)piperazin-1-yl)-2-oxoacetamide]: the IC50 in assay [1] is over 50 nM. For the same compound, in assay [2], the IC50 is under 5 nM, the IC90 is under 75 nM and the “Hap1 MTAP intact/deleted ratio” value is “B (an IC50 ratio greater than or equal to 15 fold but lower than 30 fold)”. In assay [3], this compound showed an IC50 of under 100 nM.

Take `Cc1cc(NC(=O)C(=O)N2C[C@@H](C)N(C(=O)C(C)(C)CN3CCn4ccnc4C3)C[C@@H]2c2ccccc2)cnc1N` [Compound 109]: the IC50 in assay [1] was over 50 nM. Also, in assay [2], the IC50 is 5 to 50 nM, the IC90 is over 125 nM and the “Hap1 MTAP intact/deleted ratio” value is listed as “C (an IC50 ratio of less than 15 fold)”. This compound came in with an IC50 in assay [3] of 100 to 1000 nM.

In the case of `Cc1cc(NC(=O)C(=O)N2C[C@@H](C)N(C(=O)C(C)C)C[C@@H]2c2ccc(F)c(Cl)c2)cnc1N` [Compound 74, N-(6-amino-5-methylpyridin-3-yl)-2-((2S,5R)-2-(3-chloro-4-fluorophenyl)-4-isobutyryl-5-methylpiperazin-1-yl)-2-oxoacetamide], the IC50 was over 50 nM in assay [1], 5 to 50 nM in assay [2] and 100 to 1000 nM in assay [3]. In assay [2], the IC90 was 75 to 125 nM. In assay [2], the “Hap1 MTAP intact/deleted ratio” value is given as “A (an IC50 ratio greater than or equal to 30 fold)”.

On to `C[C@@H]1CN(C(=O)C(=O)Nc2cnc(N)c3cn[nH]c23)[C@@H](c2ccccc2)CN1C1(C)CC1` (racemic) [Compound 167, N-(4-Amino-1H-pyrazolo[4,3-c]pyridin-7-yl)-2-oxo-2-[rac-(2S,5R)-5-methyl-4-(1-methylcyclopropyl)-2-phenyl-piperazin-1-yl]acetamide], for which the figures for the IC50 in assay [1], in assay [2] and in assay [3] were over 50 nM, under 5 nM and under 100 nM, respectively. The “Hap1 MTAP intact/deleted ratio” value in assay [2] was “A (an IC50 ratio greater than or equal to 30 fold)”.

For the compound `C[C@@H]1CN(C(=O)C(=O)Nc2cncc3cn[nH]c23)[C@@H](c2cccc(Cl)c2)CN1C(=O)C(C)(C)C` [Compound 9, 2-((2S,5R)-2-(3-chlorophenyl)-5-methyl-4-pivaloylpiperazin-1-yl)-2-oxo-N-(1H-pyrazolo[4,3-c]pyridin-7-yl)acetamide], the results for the IC50 in assay [1], in assay [2] and in assay [3] were over 50 nM, 5 to 50 nM and 100 to 1000 nM, respectively. Besides, the IC90 in assay [2] was over 125 nM. In assay [2], the “Hap1 MTAP intact/deleted ratio” value was “B (an IC50 ratio greater than or equal to 15 fold but lower than 30 fold)”.

For `C[C@@H]1CN(C(=O)C(=O)Nc2cnc(N)c(C3CC3)c2)[C@@H](c2ccccc2)CN1C(=O)C(C)(C)C` [Compound 97, N-(6-amino-5-cyclopropylpyridin-3-yl)-2-((2S,5R)-5-methyl-2-phenyl-4-pivaloylpiperazin-1-yl)-2-oxoacetamide], the IC50 in assay [1] is 5 to 50 nM; in assay [2] it was under 5 nM; in assay [3], under 100 nM. Also, the IC90 in assay [2] is under 75 nM. Also, the “Hap1 MTAP intact/deleted ratio” value in assay [2] was “C (an IC50 ratio of less than 15 fold)”.

As for `Cc1cc(NC(=O)C(=O)N2C[C@@H](C)N(C(=O)C(C)C)C[C@@H]2c2ccc(F)c(F)c2)cnc1N` [Compound 158, N-(6-amino-5-methylpyridin-3-yl)-2-((2S,5R)-2-(3,4-difluorophenyl)-4-isobutyryl-5-methylpiperazin-1-yl)-2-oxoacetamide], the IC50 in assay [1] is over 50 nM. Also, in assay [2], the IC50 was in the range of 5 to 50 nM, the IC90 is over 125 nM and the “Hap1 MTAP intact/deleted ratio” value is “A (an IC50 ratio greater than or equal to 30 fold)”. The same compound came in with an IC50 in assay [3] of 100 to 1000 nM.

As to `COc1ncc(NC(=O)C(=O)N2C[C@@H](C)N(C(=O)C(C)C)C[C@@H]2c2ccc(F)c(Cl)c2)cc1C(N)=O` [Compound 12, 5-(2-((2S,5R)-2-(3-chloro-4-fluorophenyl)-4-isobutyryl-5-methylpiperazin-1-yl)-2-oxoacetamido)-2-methoxynicotinamide], the IC50 in assay [1] was over 50 nM. Also, in assay [2], the IC50 lay in the range of 5 to 50 nM, the IC90 was over 125 nM and the “Hap1 MTAP intact/deleted ratio” value is “A (an IC50 ratio greater than or equal to 30 fold)”. This compound also yielded an IC50 in assay [3] of 100 to 1000 nM.

`C[C@@H]1CN(C(=O)C(=O)Nc2cncc3cn[nH]c23)[C@@H](c2ccccc2)CN1C(=O)C1(C)CC1` [Compound 91, 2-((2S,5R)-5-methyl-4-(1-methylcyclopropanecarbonyl)-2-phenylpiperazin-1-yl)-2-oxo-N-(1H-pyrazolo[4,3-c]pyridin-7-yl)acetamide]: the IC50 in assay [1] is over 50 nM. In assay [2], the IC50 was in the range of 5 to 50 nM, the IC90 is over 125 nM and the “Hap1 MTAP intact/deleted ratio” value was “B (an IC50 ratio greater than or equal to 15 fold but lower than 30 fold)”. The IC50 in assay [3] is under 100 nM.
